Source: paper PMC4031649 (Cell reports, 2014)

Target: T1, GGCT (Homo sapiens, UniProt O75223)
T1 sequence (O75223 1-188): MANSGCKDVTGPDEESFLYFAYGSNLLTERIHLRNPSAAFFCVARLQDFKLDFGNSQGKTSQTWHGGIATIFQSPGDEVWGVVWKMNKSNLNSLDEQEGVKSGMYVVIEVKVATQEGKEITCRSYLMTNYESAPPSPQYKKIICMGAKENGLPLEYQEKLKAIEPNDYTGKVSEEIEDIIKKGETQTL
Test: thin layer chromatography, ninhydrin
Type: biochemical
Conditions: glycine release

With N[C@@H](CCC(=O)NCC(=O)O)C(=O)O [γ-glutamyl-glycine] the “thin layer chromatography, ninhydrin” value was “Both GGCT and Botch release glycine by cleavage of γ-glutamyl-glycine”.
